Assay results reported in US20200030259A1, “Antiestrogens and/or Aromatase Inhibitors for Use in Treating Obesity and Related Symptoms” (Repros Therapeutics Inc., priority 2016, published 2020).

Tests used:
[1] = system: subjects in need of treatment for obesity; assay: Treating obesity with an antiestrogen (Example 2); type: in vivo; conditions: 5 mg to 100 mg daily or every other day for at least three months
Description: Subjects in need of treatment for obesity are administered an amount of an antiestrogen (e.g. trans-clomiphene or a salt or analogue thereof) in an amount effective to increase LH and FSH to therapeutic levels over a treatment period of sufficient duration to achieve the desired result, preferably for a period of at least 3 months during which an effective dose is administered daily or every other day. FSH and LH levels may be assessed prior to initiating treatment and then monitored through the course of treatment to ensure that therapeutic levels of the pituitary hormones are reached. By way of nonlimiting example, a subject with obesity is administered 5 mg to 100 mg trans-clomiphene daily or every other day for a treatment period of at least three months, preferably at least six months.

[2] = system: obese men with acquired hypogonadotropic hypogonadism; assay: Phase 2 clinical trial: DISF-SR, IWQOL and SF-36 total scores; type: in vivo, human; conditions: enclomiphene arms; 3 and 6 months; n=15 per group; FIG. 3
Excerpt: FIG. 3 illustrates percent improvement from baseline total score at the 3 month and 6 month time points in subjects described at FIGS. 1A and 1B (n=15 per group) in the DISF-SR (Derogatis Interview for Sexual Functioning), IWQOL (Impact of Weight on Quality of Life questionnaire) and SF-36 (Medical Outcomes Study Short Form).
(§1) A randomized double blind placebo-controlled Phase 2 clinical study (duration=6 months) was initiated to study the effects of trans-clomiphene on testosterone, metabolic function, weight, body composition, measures of strength and quality of life assessments (made throughout the study) in obese men with acquired hypogonadotropic hypogonadism.
(§2) 50 adult male subjects are enrolled in the study with an average age of 43.3 (stdev 9.2), average BMI of 36.8 (stdev 3.2), average waist size of 46.9″ (stdev 4.1) and average body fat percentage of 38.1 (stdev 5.2). Average baseline testosterone levels in the subjects was 221.9 ng/dl (stdev 52.7), average estradiol level in the subjects was […] (stdev 14.8) and the average T:E ratio was 4.95 (stdev 1.7; normal range of T:E is 20-25). The top four reported baseline symptoms (by % of enrollees) were (i) fatigue/lack of energy (96%) (ii) depression, irritability, lack of focus (74%) (iii) poor libido (60%) and (iv) muscle weakness (48%). The subjects were provided a low calorie commercial diet for 6 months, gym membership for […] and access to a personal trainer for 6 months. Subjects were randomized to receive treatment with 12.5 mg enclomiphene/day, 25 mg enclomiphene/day or placebo via oral capsule over a three month period.

[3] = system: obese men with acquired hypogonadotropic hypogonadism; assay: Phase 2 clinical trial: free and total (LCMS) testosterone; type: in vivo, human; conditions: enclomiphene arms; FIG. 2B
Excerpt: (§3) FIGS. 2A and 2B illustrate lean mass (as a percentage of total mass in kilograms, measured by dual energy X-ray Absorptiometry (DXA)) and total testosterone levels at baseline and at the 3 month and 6 month time points in the subjects described at FIGS. 1A and 1B.
as §1
as §2, with “Subjects were randomized to receive treatment with 12.5 mg enclomiphene/day, 25 mg enclomiphene/day or placebo via oral capsule over a three month period.” left out

[4] = system: obese men with acquired hypogonadotropic hypogonadism; assay: Phase 2 clinical trial: lean mass by dual energy X-ray Absorptiometry (DXA); type: in vivo, human; conditions: placebo arm lost lean mass, FIG. 2A
Excerpt: as §3, §1
as §2, with “Subjects were randomized to receive treatment with 12.5 mg enclomiphene/day, 25 mg enclomiphene/day or placebo via oral capsule over a three month period.” left out

[5] = system: obese men with acquired hypogonadotropic hypogonadism; assay: Phase 2 clinical trial: morning testosterone; type: in vivo, human; conditions: p<0.0001, FIG. 1B
Description: 50 adult male subjects are enrolled in the study with an average age of 43.3 (stdev 9.2), average BMI of 36.8 (stdev 3.2), average waist size of 46.9″ (stdev 4.1) and average body fat percentage of 38.1 (stdev 5.2). Average baseline testosterone levels in the subjects was 221.9 ng/dl (stdev 52.7), average estradiol level in the subjects was 48.1 μg/ml (stdev 14.8) and the average T:E ratio was 4.95 (stdev 1.7; normal range of T:E is 20-25). […] The subjects were provided a low calorie commercial diet for 6 months, gym membership for 15 month and access to a personal trainer for 6 months. Subjects were randomized to receive treatment with 12.5 mg enclomiphene/day, 25 mg enclomiphene/day or placebo via oral capsule over a three month period.

CCN(CC)CCOc1ccc(/C(=C(/Cl)c2ccccc2)c2ccccc2)cc1 [enclomiphene, trans-clomiphene]
symptoms of obesity during treatment [1]: reduction in one or more symptoms of obesity is observed | percent improvement relative to baseline in DISF-SR total score [2]: statistically significant from baseline | percent improvement relative to baseline in IWQOL total score [2]: statistically significant from baseline | percent improvement relative to baseline in SF-36 total score [2]: statistically significant from baseline | free testosterone, baseline to six month time point [3]: increases | total (LCMS) testosterone, baseline to six month time point [3]: increases | lean mass (percentage of total mass, DXA) at six months ([4]; 12.5 mg enclomiphene arm): gained lean mass | lean mass (percentage of total mass, DXA) at six months ([4]; 25 mg enclomiphene arm): gained lean mass | morning testosterone at six months ([5]; 12.5 mg enclomiphene/day oral capsule with weight loss regimen, baseline ~235 ng/dl): ~505 ng/dL | morning testosterone at six months ([5]; 25 mg enclomiphene/day oral capsule with weight loss regimen, baseline ~285 ng/dl): ~605 ng/dL
